{"source": "patent US11806344B2", "about": "“Pharmaceutical composition comprising mineralocorticoid receptor antagonist and use thereof” (priority 2016, dated 2023)", "key": {"[1]": {"assay": "Absorption of Compound I D90 5 μm suspension in Beagle dogs (Example 3-2)", "assay_type": "in vivo", "conditions": "intragastric single dose 0.5 mg/kg, suspension in 0.5% MC", "procedure": "Sample to test: Compound I having D90 of 5 μm was suspended in 0.5% MC immediately before tests, to prepare 0.25 mg/mL suspension.\nAnimals: Three Beagle Dogs.\n(1) All animals fasted for 12 h or longer before drug administration, and food was supplied 4 h after drug administration, with ad libitum access to water all the time. […] The collected blood was stored in a dry tube with heparin (normal saline containing 0.1% heparin sodium). (2) Plasma preparation: The whole blood samples collected in step (1) were subject to centrifugation at a low speed (8000 r/min, 6 min, 4° C.) to separate the plasma (the whole blood was stored in a mobile freezer at about 0 to 4° C., and plasma had to be separated within 30 minutes after the blood collection), and the plasma was kept in dark in a freezer at −70° C. (or lower) for future analysis."}, "[2]": {"assay": "Absorption of Compound I of different particle sizes/formulations in male SD rats (Example 3-1)", "assay_type": "in vivo", "conditions": "intragastric single dose 1.0 mg/kg; for AUCINF: 1 mg/kg; for BA %: absolute bioavailability vs IV 2.0 mg/kg", "procedure": "Compound I with different formulations and/or different D90 values was compared for absorptions in male SD rats.\nSamples to test: Compound I was prepared by the method as described in Example 1 of WO2014094664A1, and then pulverized to provide Compound I samples having D90 of 538 nm, 3.8 μm, 21.7 μm, 41.5 μm and 71.6 μm, respectively; immediately before the tests, these samples were suspended in 0.5% MC to obtain 1 mg/mL suspensions.\nSolutions: 5% DMSO+95% (solution containing 6% HP-β-CD)\nSolid dispersions: Compound I: Polyvinylpyrrolidone K30=1:8 (w/w)\nThe formulation for intravenous injection was a solution where Compound I was dissolved in 5% DMSO+95% (6% HP-β-CD solution), and SD rats were administered at a dose of 2 mg/kg."}, "[3]": {"tested_on": "patients with diabetic nephrophthy", "conditions": "cited from earlier work"}, "[4]": {"conditions": "rat, in vivo, po, 1 mg/kg", "quoted_text": "Blood collection: The animals were fixed and had their tails warmed in a water bath 10 min prior to blood collection; about 100 μL of blood was collected through the tail vein for each animal and put into an anticoagulation tube containing hepatin; the blood samples were subject to centrifugation at 8000 rpm for 6 min at 4° C. to obtain plasma samples, which had to be obtained within 30 minutes after blood was collected; the plasma samples were stored in a freezer at −80° C. for future tests.\nSample analysis: 50 μL of each plasma sample from the freezer was transferred to a centrifugal tube; 100 μL of water and 400 μL of MTBE standard solution (50 ng/mL) were added into the tube and well mixed with the plasma; the obtained mixture was mixed for 10 minutes using a vortex mixer and then subject to centrifugation for 5 minutes (12000 r/min); 300 μL of the supernatant was transferred to another centrifugal tube and blown dry with nitrogen gas; the resultant substance was dissolved in 200 μL of a solution consisting of methanol and water at a ratio of 1:1, of which 20 μL was used for the LC-MS/MS measurement.\nData processing: the compound concentration was output by Analyst 1.6.1 (AB Sciex); the means, standard deviations, and variation coefficients were calculated using Microsoft Excel (no calculation needed if these parameters were directed output by Analyst 1.6.1), and pharmacokinetic parameters were determined using the NCA analysis object in Pharsight Phoenix 6.3."}}, "note": "Where two headings read alike, the source gives them in different places."}
{"molecule": "N#Cc1ccc(N2N=C3c4ccc(C(=O)N5CCC(O)CC5)nc4CC[C@@H]3[C@@H]2C2CCCC2)cc1Cl", "note": "[Compound I having D90 of 5 μm]", "values": [{"measurement": "AUC(0-inf)", "setting": "[1]; dog, plasma, po", "result": 506, "unit": "ng·h/mL"}, {"measurement": "BA %", "setting": "[1]", "result": 57.4, "unit": "%"}]}
{"molecule": "N#Cc1ccc(N2N=C3c4ccc(C(=O)N5CCC(O)CC5)nc4CC[C@@H]3[C@@H]2C2CCCC2)cc1Cl", "note": "[Compound I with D90 of 3.8 μm]", "values": [{"measurement": "AUCINF", "setting": "[2]", "result": 1045, "unit": "ng·h/mL"}, {"measurement": "BA %", "setting": "[2]", "result": 66.9, "unit": "%"}]}
{"molecule": "N#Cc1ccc(N2N=C3c4ccc(C(=O)N5CCC(O)CC5)nc4CC[C@@H]3[C@@H]2C2CCCC2)cc1Cl", "note": "[Compound I with D90 of 21.7 μm]", "values": [{"measurement": "AUCINF", "setting": "[2]", "result": 854, "unit": "ng·h/mL"}, {"measurement": "BA %", "setting": "[2]", "result": 54.6, "unit": "%"}]}
{"molecule": "N#Cc1ccc(N2N=C3c4ccc(C(=O)N5CCC(O)CC5)nc4CC[C@@H]3[C@@H]2C2CCCC2)cc1Cl", "note": "[Compound I with D90 of 41.5 μm]", "values": [{"measurement": "AUCINF", "setting": "[2]", "result": 545, "unit": "ng·h/mL"}, {"measurement": "BA %", "setting": "[2]", "result": 34.8, "unit": "%"}]}
{"molecule": "N#Cc1ccc(N2N=C3c4ccc(C(=O)N5CCC(O)CC5)nc4CC[C@@H]3[C@@H]2C2CCCC2)cc1Cl", "note": "[Compound I with D90 of 72.0 μm]", "values": [{"measurement": "AUCINF", "setting": "[2]", "result": 207, "unit": "ng·h/mL"}, {"measurement": "BA %", "setting": "[2]", "result": 13.2, "unit": "%"}, {"measurement": "BA %", "setting": "[2]; listed as Compound I with D90 of 72.2 μm", "result": 13.2, "unit": "%"}]}
{"molecule": "N#Cc1ccc(N2N=C3c4ccc(C(=O)N5CCC(O)CC5)nc4CC[C@@H]3[C@@H]2C2CCCC2)cc1Cl", "note": "[Compound I with D90 of 538 nm]", "values": [{"measurement": "AUCINF", "setting": "[2]", "result": 1287, "unit": "ng·h/mL"}, {"measurement": "BA %", "setting": "[2]", "result": 82.3, "unit": "%"}]}
{"molecule": "CCOc1ncc(C)c2c1[C@H](c1ccc(C#N)cc1OC)C(C(N)=O)=C(C)N2", "note": "[Finerenone]", "values": [{"measurement": "UACR reduced", "setting": "[3]; Finerenone 7.5 mg/day", "result": 21, "unit": "%"}, {"measurement": "incidence of discontinuation due to onset of hyperkalemia", "setting": "[3]; Finerenone 7.5 mg/day", "result": 2.1, "unit": "%"}, {"measurement": "UACR reduced", "setting": "[3]; Finerenone 10 mg/day", "result": 24, "unit": "%"}, {"measurement": "incidence of discontinuation due to onset of hyperkalemia", "setting": "[3]; Finerenone 10 mg/day", "result": 0, "unit": "%"}, {"measurement": "UACR reduced", "setting": "[3]; Finerenone 15 mg/day", "result": 33, "unit": "%"}, {"measurement": "incidence of discontinuation due to onset of hyperkalemia", "setting": "[3]; Finerenone 15 mg/day", "result": 3.2, "unit": "%"}, {"measurement": "UACR reduced", "setting": "[3]; Finerenone 20 mg/day", "result": 38, "unit": "%"}, {"measurement": "incidence of discontinuation due to onset of hyperkalemia", "setting": "[3]; Finerenone 20 mg/day", "result": 1.7, "unit": "%"}]}
{"molecule": "Carbomer", "values": [{"measurement": "AUCINF", "setting": "[4]", "result": 289, "unit": "ng·h/mL"}]}
{"molecule": "Hydroxypropyl cellulose", "values": [{"measurement": "AUCINF", "setting": "[4]", "result": 535, "unit": "ng·h/mL"}]}
{"molecule": "Hydroxypropyl methyl cellulose", "values": [{"measurement": "AUCINF", "setting": "[4]", "result": 483, "unit": "ng·h/mL"}]}
{"molecule": "Poloxamer 188", "values": [{"measurement": "AUCINF", "setting": "[4]", "result": 712, "unit": "ng·h/mL"}]}
{"molecule": "Polyethylene glycol 400", "values": [{"measurement": "AUCINF", "setting": "[4]", "result": 613, "unit": "ng·h/mL"}]}
{"molecule": "Polyoxyl(40) stearate", "values": [{"measurement": "AUCINF", "setting": "[4]", "result": 427, "unit": "ng·h/mL"}]}
{"molecule": "Polysorbate 80", "values": [{"measurement": "AUCINF", "setting": "[4]", "result": 654, "unit": "ng·h/mL"}]}
{"molecule": "Polyvinyl alcohol", "values": [{"measurement": "AUCINF", "setting": "[4]", "result": 603, "unit": "ng·h/mL"}]}
{"molecule": "hydroxypropyl-β-cyclodextrin", "values": [{"measurement": "AUCINF", "setting": "[4]", "result": 350, "unit": "ng·h/mL"}]}
